Test: Human HepG2 cell viability assay in 384 well format
Format: toxicity, cell-based
Set-up: dose 125 nL, time 70.5 hour; concentration not given beside the values
Details: HepG2 cells, read-out: Inhibition
In the case of c1cnc(N2CCO[C@H]3CN(CC4CCC4)C[C@H]32)cn1, the cytotoxicity at 70.5 h is reported as -4.76%.
In the case of COCC1CN(Cc2ccc(F)cc2)Cc2nn(C)cc21 (configuration not stated), the cytotoxicity at 70.5 h is reported as -3%.
For O=S(=O)(c1c(F)cccc1F)N1CCC(Cn2cccn2)CC1, the cytotoxicity at 70.5 h was -11.8%.
With Cc1ccc(Oc2ncccc2CNC(=O)NC2CCCCC2)cn1 the cytotoxicity at 70.5 h was -6.45%.
With Cc1nn(CC(=O)n2cccn2)c(C)c1I the cytotoxicity at 70.5 h was 15.6%.
CCOC(CC)C(=O)NCc1ccnc(Oc2ccc(F)cc2)c1 (configuration not stated) showed a cytotoxicity at 70.5 h of -7.99%.
Compound COCc1cc(NCCCSc2nnc(C)s2)ncn1 has a cytotoxicity at 70.5 h of -6.65%.
Cc1cnn(C2CCCN(C(=O)c3cc(C)sc3C)C2)c1 (configuration not stated) gave a cytotoxicity at 70.5 h of -2.62%.
In the case of CC[C@H]1CN2CC[C@H]1C[C@@H]2CNC(=O)NC1CCCCC1, the cytotoxicity at 70.5 h is reported as 4.29%.
Nc1nccnc1C(=O)N1CC(OCc2cccc3ccccc23)C1 gave a cytotoxicity at 70.5 h of 9.66%.
With O=C(NCCN1CCOCC1)c1ccc(-c2ccc(F)cc2)nc1O the cytotoxicity at 70.5 h was -3.89%.
c1cc2c(cc1-n1nc(C3CC3)nc1-c1csnn1)OCCO2 gave a cytotoxicity at 70.5 h of 2.73%.
O=C1OC2(CCNCC2)CN1CC(=O)N1CCCC1c1nccs1 (configuration not stated) showed a cytotoxicity at 70.5 h of -7.02%.
Compound COCc1cccc(CNC(=O)CNc2ccccc2C(C)=O)c1 has a cytotoxicity at 70.5 h of 1.21%.
In the case of CC1(C)CC(N(Cc2ccccc2)Cc2c[nH]cn2)CC(C)(C)N1, the cytotoxicity at 70.5 h is reported as 2.11%.
In the case of Cc1ncsc1-c1nnc(C2CCN(Cc3ccccc3F)CC2)o1, the cytotoxicity at 70.5 h is reported as -0.587%.
In the case of COC(=O)[C@@H]1CCCN1C(=O)c1cn(C/C=C/c2ccccc2)nn1, the cytotoxicity at 70.5 h is reported as 24.7%.
CCOc1cc(C(=O)N2CCCC(c3noc(C)n3)C2)ccc1OC (configuration not stated) showed a cytotoxicity at 70.5 h of -4.06%.
Compound CN1CCN(C(=O)CCc2cccnc2)c2ccc(F)cc21 has a cytotoxicity at 70.5 h of 1.2%.
In the case of CC[C@H](Cn1ncc2ccccc2c1=O)NC(=O)c1cnc(C)cn1, the cytotoxicity at 70.5 h is reported as -12.4%.
With Cn1cnc2c1CCN(CCCc1ccccc1)C2 the cytotoxicity at 70.5 h was -1.08%.
Work on CCc1nc(CN(CC(N)=O)C(C)C)cs1 yielded a cytotoxicity at 70.5 h of 18.1%.
Work on CCc1noc(C(C)N2CCN(Cc3noc(C)n3)CC2)n1 (configuration not stated) yielded a cytotoxicity at 70.5 h of 26.6%.
Compound CC(O)CN(C)C(=O)CCNC(=O)OC(C)(C)C (configuration not stated) has a cytotoxicity at 70.5 h of -3.37%.
COc1cccc(COCC(=O)N2CCCC2Cn2cccn2)c1 (configuration not stated) gave a cytotoxicity at 70.5 h of -11.8%.
CCCNCc1ccc(-c2cc(N)nc3[nH]ccc23)cc1 showed a cytotoxicity at 70.5 h of -0.725%.
CN1CCN(C(CNC(=O)c2ccc(Cl)cc2F)c2cccs2)CC1 (configuration not stated) gave a cytotoxicity at 70.5 h of 42.7%.
Compound Cc1nc(CC(=O)N2CCCN(c3ccc(F)cc3)CC2)cs1 has a cytotoxicity at 70.5 h of -3.38%.
Work on CC(=O)NCC(=O)N1CCOC(c2cccc(N)n2)C1 (configuration not stated) yielded a cytotoxicity at 70.5 h of 15.3%.
Compound O=C(CCn1cnc2cc(F)c(F)cc21)N1CCN(C2CC2)CC1 has a cytotoxicity at 70.5 h of -5.93%.
For CCC1CN(C(=O)c2[nH]nc(C)c2Br)CCO1 (configuration not stated), the cytotoxicity at 70.5 h was -6.3%.
In the case of Cc1ncc(CN(Cc2ccccn2)Cc2ccccc2Cl)n1C, the cytotoxicity at 70.5 h is reported as 11.6%.
Compound CN(C)CCNC(=O)CCC1CCN(C(=O)c2ccc(Cl)cc2O)CC1 has a cytotoxicity at 70.5 h of -8.44%.
With O=C1CCCN1CCc1noc(-c2ccc(Cl)cc2)n1 the cytotoxicity at 70.5 h was -10.6%.
With CN(C)C(C(=O)NCCSc1ncn[nH]1)c1cccc(F)c1 (configuration not stated) the cytotoxicity at 70.5 h was 28.8%.
With COCCN1C[C@H]2CC[C@@H]1CN(CC(=O)Nc1ccn(C)n1)C2 the cytotoxicity at 70.5 h was -9.39%.
With c1ccc2nc(N3CCOC(Cn4cncn4)C3)cnc2c1 (configuration not stated) the cytotoxicity at 70.5 h was -5.96%.
Work on Cc1nc(C)n(CC2CCCN2Cc2nc(-c3ccco3)no2)n1 (configuration not stated) yielded a cytotoxicity at 70.5 h of -4.04%.
c1csc(CN2C[C@H](OCC3CC3)[C@H]3COC[C@H]32)n1 gave a cytotoxicity at 70.5 h of -3.74%.
CN1CCC(N(Cc2ccccc2)C(=O)c2nccn3ccnc23)CC1 showed a cytotoxicity at 70.5 h of -7.08%.
Work on CNC(=O)c1ccc2c(c1)C1(CCN(CC(C)C)CC1)C(=O)N2 yielded a cytotoxicity at 70.5 h of -10.5%.
O=C(O)[C@@H]1CN(Cc2ccc3nsnc3c2)C[C@H]1c1ccncc1 showed a cytotoxicity at 70.5 h of 6.98%.
Cc1csc(NC(=O)C2CCN(Cc3cccc4c3OCCO4)CC2)n1 showed a cytotoxicity at 70.5 h of 8.1%.
In the case of O=c1[nH]cc(N2CCOCC2)c(=O)[nH]1, the cytotoxicity at 70.5 h is reported as -0.0513%.
For COc1ccccc1OCc1cc(C(=O)NC[C@@H]2CCCN2)n[nH]1, the cytotoxicity at 70.5 h was -1.83%.
Compound COCCNC(=O)Cn1cc2c(n1)c(C)nn2C(C)C has a cytotoxicity at 70.5 h of -5.84%.
For CCCc1ccc(C(=O)N2CCn3c(nnc3C(C)C)C2)cc1, the cytotoxicity at 70.5 h was -5.86%.
With CC(CN1CCC2(CC1)c1nc[nH]c1CCN2S(C)(=O)=O)C(F)(F)F (configuration not stated) the cytotoxicity at 70.5 h was -1.86%.
Compound CN(CC1COc2ccccc2O1)C(=O)NCCCn1cccn1 (configuration not stated) has a cytotoxicity at 70.5 h of -8.71%.
NC(=O)c1cccc(CN2CCc3c(ncn3C3CC3)C2)c1 gave a cytotoxicity at 70.5 h of 23.7%.
Cc1cc(C[C@@H]2CCC[C@H]2NCc2ccccc2F)on1 gave a cytotoxicity at 70.5 h of -2.37%.
CC(C)n1cccc1C(=O)N1CC[C@@H](NC(=O)c2ccccn2)[C@H](O)C1 gave a cytotoxicity at 70.5 h of -14.5%.
COC(=O)CNC(=O)CCc1cc(Cl)cs1 showed a cytotoxicity at 70.5 h of 6.93%.
Work on O=C([C@H]1CCCN1)N1CC2(CCNCC2)c2cc(Cl)ccc21 yielded a cytotoxicity at 70.5 h of 30%.
With COCc1cccc(NC(C)C(=O)N(C)Cc2ccccc2)c1 (configuration not stated) the cytotoxicity at 70.5 h was 10.7%.
With CC(C)c1nccc(-c2nccn2CCN(C)S(C)(=O)=O)n1 the cytotoxicity at 70.5 h was 19%.
In the case of Cn1cc(C2COC3(CCN(C(=O)c4cccn4C)CC3)C2)cn1 (configuration not stated), the cytotoxicity at 70.5 h is reported as 14.2%.
COc1cc(NC(=O)N(C)CCC2CC2)ncn1 gave a cytotoxicity at 70.5 h of 19.9%.
Compound COc1ccc(C(=O)N2CCO[C@H]3[C@@H](OCC4CC4)CC[C@@H]32)cc1F has a cytotoxicity at 70.5 h of -2.05%.
Cc1c(NCc2cccnc2)cccc1C(=O)N1CCC(N(C)C)C1 (configuration not stated) showed a cytotoxicity at 70.5 h of -5.39%.
CCc1nncn1CCNC(=O)Nc1ccc(OC)c(C)c1 gave a cytotoxicity at 70.5 h of -7.19%.
For CCc1nc(C)c(CN2CCN(c3ncnc4scc(C)c34)CC2)[nH]1, the cytotoxicity at 70.5 h was -9.72%.
With Cc1ccccc1CNC(=O)Cn1ncc2c1c(C)nn2C the cytotoxicity at 70.5 h was -9.91%.
For CN(CCCNS(=O)(=O)N1CCC2(CC1)OCCO2)c1ccccc1, the cytotoxicity at 70.5 h was 22.7%.
Compound O=C(CCNc1ncccn1)N1CCCC(n2cccn2)C1 (configuration not stated) has a cytotoxicity at 70.5 h of -5.02%.
For CC(C)SCC(=O)N1Cc2cnc(-c3ccccc3)nc2C1, the cytotoxicity at 70.5 h was -7.54%.
For O=C(CN1CCC(c2ccccc2)CC1)NCc1cc2n(n1)CCNC2, the cytotoxicity at 70.5 h was -10.6%.
For c1ccc(-c2noc(CNC3CCCN(c4cccnn4)C3)n2)nc1 (configuration not stated), the cytotoxicity at 70.5 h was 0.881%.
For COCc1cc(CNCc2c(C)n(CC(C)C)c3ccccc23)n[nH]1, the cytotoxicity at 70.5 h was -11%.
For CCc1cc(C(F)(F)F)n2nc(C3CCCN3C(=O)COC)cc2n1 (configuration not stated), the cytotoxicity at 70.5 h was -4.23%.
Compound CCc1ccc(C(=O)N2CC(C(=O)NC(C)C)C3(CCOCC3)C2)cc1 (configuration not stated) has a cytotoxicity at 70.5 h of -20.6%.
CCCC(=O)N(C)c1cc(C#N)c2ccccc2n1 showed a cytotoxicity at 70.5 h of -2.82%.
Cc1nc(C2CCCN2C(=O)c2cc3c(s2)CCCC3)no1 (configuration not stated) gave a cytotoxicity at 70.5 h of -3.98%.
CN1CC(c2ccccc2)C2(CCN(C(=O)c3ccc[nH]3)CC2)C1=O (configuration not stated) gave a cytotoxicity at 70.5 h of 2.63%.
With CCc1ccc(S(=O)(=O)N2CCCn3ncnc32)s1 the cytotoxicity at 70.5 h was -3.85%.
In the case of CNC(=O)c1ccc(C(=O)N2CCC(Nc3cccnn3)CC2)cn1, the cytotoxicity at 70.5 h is reported as -4.73%.
For C=C(C)CN1CCCC(NS(C)(=O)=O)C1 (configuration not stated), the cytotoxicity at 70.5 h was -5.08%.
In the case of CC(C)N(Cc1ccccn1)S(=O)(=O)N1CCCC1c1ccco1 (configuration not stated), the cytotoxicity at 70.5 h is reported as 3.04%.
O=C(O)CC(CC(=O)NCCc1cccs1)c1cccs1 (configuration not stated) gave a cytotoxicity at 70.5 h of 3.06%.
With CN(C(=O)Cn1nc(-c2ccccc2Cl)ccc1=O)C1CCS(=O)(=O)C1 (configuration not stated) the cytotoxicity at 70.5 h was -18.5%.
In the case of CC(C)CS(=O)(=O)Nc1ccc([C@H]2OCC(=O)N[C@@H]2CO)cc1, the cytotoxicity at 70.5 h is reported as 0.34%.
For Cc1cccc2c1C(=O)NC1(CCOCC1)N2, the cytotoxicity at 70.5 h was -13.5%.
